Where two headings read alike, the source gives them in different places.
Columns and labels:
[1] = system: S. schottmuelleri; assay: Curative dose against systemic S. schottmuelleri infection; type: in vivo, mice; conditions: Mus musculus
[2] = system: E. coli; assay: Curative dose against systemic E. coli infection; type: in vivo, mice; conditions: Escherichia coli, in Mus musculus, po
Description: (§1) In order to illustrate the relative activity of the compounds of this invention as compared to amoxicillin, the compounds, represented by the acetaldehyde derivative, were tested orally against systemic bacterial infections of mice with the following results. The CD50 is the curative dose in 50% of the animals treated against a challenge organism.

[3] = system: S. typhosa; assay: Curative dose against systemic S. typhosa infection; type: in vivo, mice; conditions: Mus musculus, po
Description: as §1

[4] = system: K. pneumoniae; assay: Curative dose against systemic K. pneumoniae infection; type: in vivo, mice; conditions: Klebsiella pneumoniae, in Mus musculus, read-out: CD50 (the source's name)
[5] = system: S. pyogenes; assay: Curative dose against systemic S. pyogenes infection; type: in vivo, mice; conditions: Streptococcus pyogenes, in Mus musculus, read-out: CD50 (the source's name)
[6] = system: B. subtilis; assay: Stability in aqueous solution at room temperature, microbiological assay using B. subtilis; conditions: in words
Description: To illustrate the relative stability of the compounds of this invention in aqueous solution at room temperature the sodium salts of the compounds were tested as 20% by weight aqueous solutions for activity by microbiological assay using B. subtilis as the test organism and compared to 10% and 20% aqueous solutions of amoxicillin sodium salt and 10% aqueous solution of the acetone derivative of amoxicillin.

[7] = system: D. pneumoniae; assay: Curative dose against systemic D. pneumoniae infection; type: in vivo, mice; conditions: Streptococcus pneumoniae, in Mus musculus, read-out: CD50 (the source's name)
[8] = system: E. coli; assay: Curative dose against systemic E. coli infection; type: in vivo, mice; conditions: Escherichia coli, in Mus musculus, read-out: CD50 (the source's name)
[9] = system: S. aureus; assay: Curative dose against systemic S. aureus infection; type: in vivo, mice; conditions: Staphylococcus aureus, in Mus musculus, read-out: CD50 (the source's name)
[10] = in vivo
[11] = system: S. typhosa; assay: Curative dose against systemic S. typhosa infection; type: in vivo, mice; conditions: Mus musculus, sc, read-out: CD50 (the source's name)
[12] = Table 3(b), acetaldehyde derivative comparison, read-out: CD50 (the source's name)
[13] = read-out: CD50, Table 2, PO, mice
[14] = po, Table 3(b), po, acetaldehyde derivative comparison
[15] = po, benzaldehyde derivative comparison
[16] = po, butyraldehyde derivative comparison
[17] = po, hexaldehyde derivative comparison
[18] = po, propionaldehyde derivative comparison
[19] = sc, Table 3(b), sc, acetaldehyde derivative comparison
[20] = sc, benzaldehyde derivative comparison
[21] = sc, butyraldehyde derivative comparison
[22] = sc, hexaldehyde derivative comparison
[23] = sc, propionaldehyde derivative comparison

CC1(C)S[C@@H]2[C@H](NC(=O)[C@H](N)c3ccc(O)cc3)C(=O)N2[C@H]1C(=O)O [Amoxicillin, 6[(-)-alpha-amino-para-hydroxyphenylacetamido]-penicillanic acid]
ED50 ([1]; po, Table 3(b), po, acetaldehyde derivative comparison, read-out: CD50 (the source's name)): 5.3 mg/kg | ED50 ([1]; po, benzaldehyde derivative comparison, read-out: CD50 (the source's name)): 5.5 mg/kg | ED50 ([1]; po, butyraldehyde derivative comparison, read-out: CD50 (the source's name)): 5.9 mg/kg | ED50 ([1]; po, hexaldehyde derivative comparison, read-out: CD50 (the source's name)): 4.4 mg/kg | ED50 ([1]; po, propionaldehyde derivative comparison, read-out: CD50 (the source's name)): 5.7 mg/kg | ED50 ([1]; po, read-out: CD50, Table 2, PO, mice): 5.3 mg/kg | ED50 ([1]; sc, Table 3(b), sc, acetaldehyde derivative comparison, read-out: CD50 (the source's name)): 6.5 mg/kg | ED50 ([1]; sc, benzaldehyde derivative comparison, read-out: CD50 (the source's name)): 6.7 mg/kg | ED50 ([1]; sc, butyraldehyde derivative comparison, read-out: CD50 (the source's name)): 2.3 mg/kg | ED50 ([1]; sc, hexaldehyde derivative comparison, read-out: CD50 (the source's name)): 1 mg/kg | ED50 ([1]; sc, propionaldehyde derivative comparison, read-out: CD50 (the source's name)): 6.1 mg/kg | ED50 [2, 12]: 6.4 mg/kg | ED50 [2, 13]: 6.4 mg/kg | ED50 [3, 12]: 5 mg/kg | ED50 ([3]; benzaldehyde derivative comparison, read-out: CD50 (the source's name)): 1.3 mg/kg | ED50 ([3]; butyraldehyde derivative comparison, read-out: CD50 (the source's name)): 3.3 mg/kg | ED50 ([3]; hexaldehyde derivative comparison, read-out: CD50 (the source's name)): 3.7 mg/kg | ED50 ([3]; propionaldehyde derivative comparison, read-out: CD50 (the source's name)): 3.8 mg/kg | ED50 [3, 13]: 5.4 mg/kg | ED50 ([4]; po, Table 2, PO, mice): 10 mg/kg | ED50 [4, 14]: 10 mg/kg | ED50 [4, 15]: 75 mg/kg | ED50 [4, 16]: 58 mg/kg | ED50 [4, 17]: 59 mg/kg | ED50 [4, 18]: 16 mg/kg | ED50 [4, 19]: 12 mg/kg | ED50 [4, 20]: 100 mg/kg | ED50 [4, 21]: 22 mg/kg | ED50 [4, 22]: 48 mg/kg | ED50 [4, 23]: 17 mg/kg | ED50 ([5]; po, Table 2, PO, mice): 1.5 mg/kg | ED50 [5, 14]: 1.5 mg/kg | ED50 [5, 15]: 0.82 mg/kg | ED50 [5, 16]: 0.08 mg/kg | ED50 [5, 17]: 0.3 mg/kg | ED50 [5, 18]: 0.16 mg/kg | ED50 [5, 19]: < 0.05 mg/kg | ED50 [5, 20]: 0.31 mg/kg | ED50 [5, 21]: < 0.01 mg/kg | ED50 [5, 22]: 0.11 mg/kg | ED50 [5, 23]: 0.07 mg/kg | stability in solution [6]: very short stability in parenteral solutions | ED50 ([7]; po, Table 2, PO, mice): 10 mg/kg | ED50 [7, 14]: 10 mg/kg | ED50 [7, 15]: < 0.2 mg/kg | ED50 [7, 16]: 2.7 mg/kg | ED50 [7, 17]: 0.75 mg/kg | ED50 [7, 18]: 1.1 mg/kg | ED50 [7, 19]: 0.53 mg/kg | ED50 [7, 20]: 0.14 mg/kg | ED50 [7, 21]: 3.2 mg/kg | ED50 [7, 22]: 0.07 mg/kg | ED50 [7, 23]: 0.19 mg/kg | ED50 [8, 15]: 16 mg/kg | ED50 [8, 16]: 15 mg/kg | ED50 [8, 17]: 10 mg/kg | ED50 [8, 18]: 11 mg/kg | ED50 [8, 19]: 10 mg/kg | ED50 [8, 20]: 5.9 mg/kg | ED50 [8, 21]: 6 mg/kg | ED50 [8, 22]: 2.5 mg/kg | ED50 [8, 23]: 3.4 mg/kg | ED50 ([9]; po, Table 2, PO, mice): 1.2 mg/kg | ED50 [9, 14]: 1.2 mg/kg | ED50 [9, 15]: 4 mg/kg | ED50 [9, 16]: 0.29 mg/kg | ED50 [9, 17]: 0.72 mg/kg | ED50 [9, 18]: 0.41 mg/kg | ED50 [9, 19]: 2 mg/kg | ED50 [9, 20]: 0.16 mg/kg | ED50 [9, 21]: 0.5 mg/kg | ED50 [9, 22]: 0.79 mg/kg | ED50 [9, 23]: 0.47 mg/kg | LD50 ([10]; ip): 3460 mg/kg | LD50 ([10]; po): > 10000 mg/kg | LD50 ([10]; sc): 10000 mg/kg | ED50 ([11]; Table 3(b), acetaldehyde derivative comparison): 6.3 mg/kg | ED50 ([11]; benzaldehyde derivative comparison): 0.56 mg/kg | ED50 ([11]; butyraldehyde derivative comparison): 1.3 mg/kg | ED50 ([11]; hexaldehyde derivative comparison): 3.3 mg/kg | ED50 ([11]; propionaldehyde derivative comparison): 2.8 mg/kg

— US4029805A, “Semisynthetic penicillins” (Hoffmann-La Roche Inc., priority 1976, dated 1977)
